The values that follow come from US8063220B2, “Sulfonyl-quinoline derivatives” (Richter Gedeon Nyrt., priority 2007, dated 2011).

One may read the Ki as the dissociation constant of the complex between target and ligand, obtained from inhibition or displacement.

Structures are written as SMILES.

The target of one test is T1, rat mGluR1 (Rattus norvegicus, UniProt P23385).
T1 construct: rat cerebellar membrane preparation was used; from tissue; host or cells: rat cerebellum (membrane preparation)
T1 sequence (P23385 19-1199): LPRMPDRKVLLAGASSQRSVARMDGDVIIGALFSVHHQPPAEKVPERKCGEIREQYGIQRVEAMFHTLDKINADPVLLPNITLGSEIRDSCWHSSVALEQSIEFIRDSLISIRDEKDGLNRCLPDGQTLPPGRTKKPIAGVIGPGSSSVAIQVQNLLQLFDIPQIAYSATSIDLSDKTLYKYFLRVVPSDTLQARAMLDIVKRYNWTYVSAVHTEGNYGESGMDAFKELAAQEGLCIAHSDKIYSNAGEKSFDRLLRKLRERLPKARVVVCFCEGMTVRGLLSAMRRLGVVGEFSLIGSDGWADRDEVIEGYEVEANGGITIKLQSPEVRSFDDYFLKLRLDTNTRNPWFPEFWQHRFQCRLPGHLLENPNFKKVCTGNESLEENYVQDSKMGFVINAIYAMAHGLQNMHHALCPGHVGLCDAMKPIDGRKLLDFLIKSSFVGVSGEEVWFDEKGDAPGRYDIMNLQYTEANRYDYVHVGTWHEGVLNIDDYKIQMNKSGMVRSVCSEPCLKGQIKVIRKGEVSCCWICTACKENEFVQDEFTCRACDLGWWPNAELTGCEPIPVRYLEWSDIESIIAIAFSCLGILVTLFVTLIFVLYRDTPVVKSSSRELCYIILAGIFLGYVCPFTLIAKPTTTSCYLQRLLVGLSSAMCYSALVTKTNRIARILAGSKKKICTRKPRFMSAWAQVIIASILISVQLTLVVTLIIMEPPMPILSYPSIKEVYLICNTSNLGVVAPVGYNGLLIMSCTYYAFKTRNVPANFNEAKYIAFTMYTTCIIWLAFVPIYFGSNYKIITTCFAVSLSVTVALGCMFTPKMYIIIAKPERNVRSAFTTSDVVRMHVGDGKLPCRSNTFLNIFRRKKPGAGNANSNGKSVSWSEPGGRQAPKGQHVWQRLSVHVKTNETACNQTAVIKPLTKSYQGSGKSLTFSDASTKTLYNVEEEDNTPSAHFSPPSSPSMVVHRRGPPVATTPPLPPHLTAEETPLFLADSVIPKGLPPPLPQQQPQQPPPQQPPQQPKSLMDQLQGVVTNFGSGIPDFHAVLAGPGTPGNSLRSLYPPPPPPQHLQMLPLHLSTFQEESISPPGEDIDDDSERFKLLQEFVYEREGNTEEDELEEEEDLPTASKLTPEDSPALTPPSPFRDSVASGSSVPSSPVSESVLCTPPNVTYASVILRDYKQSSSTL
In words: MGluR1 receptor binding test ([3H]R214127 displacement, rat cerebellar membrane preparation). The settings on record: rat mGluR1, [3H]R214127 3 nM; read-out: mGlu1 Ki. How it is done: MGluR1 receptor binding tests were performed according to modified method of Lavreysen et al. (Mol. Pharm., 2003, 63, 1082). Based on the high homology between the human and rat mGluR1 receptors, rat cerebellar membrane preparation was used to determine the binding characteristics of reference compounds and novel compounds to the rat mGluR1. [3H]R214127 (3 nM) was used as radioligand and the nonspecific binding was determined in the presence of 1 μM of R214127.
IC-50 values were determined from displacement curves by nonlinear regression analysis and were converted to Ki values using the equation method of Cheng and Prusoff (Biochem. Pharmacol., 1973, 22, 3099).

The next test deals with T2, rat mGluR5 (Rattus norvegicus, UniProt P31424).
T2 construct: Rat cerebro-cortical membrane preparation was used; from tissue; host or cells: rat cerebral cortex (membrane preparation)
T2 sequence (P31424 21-1203): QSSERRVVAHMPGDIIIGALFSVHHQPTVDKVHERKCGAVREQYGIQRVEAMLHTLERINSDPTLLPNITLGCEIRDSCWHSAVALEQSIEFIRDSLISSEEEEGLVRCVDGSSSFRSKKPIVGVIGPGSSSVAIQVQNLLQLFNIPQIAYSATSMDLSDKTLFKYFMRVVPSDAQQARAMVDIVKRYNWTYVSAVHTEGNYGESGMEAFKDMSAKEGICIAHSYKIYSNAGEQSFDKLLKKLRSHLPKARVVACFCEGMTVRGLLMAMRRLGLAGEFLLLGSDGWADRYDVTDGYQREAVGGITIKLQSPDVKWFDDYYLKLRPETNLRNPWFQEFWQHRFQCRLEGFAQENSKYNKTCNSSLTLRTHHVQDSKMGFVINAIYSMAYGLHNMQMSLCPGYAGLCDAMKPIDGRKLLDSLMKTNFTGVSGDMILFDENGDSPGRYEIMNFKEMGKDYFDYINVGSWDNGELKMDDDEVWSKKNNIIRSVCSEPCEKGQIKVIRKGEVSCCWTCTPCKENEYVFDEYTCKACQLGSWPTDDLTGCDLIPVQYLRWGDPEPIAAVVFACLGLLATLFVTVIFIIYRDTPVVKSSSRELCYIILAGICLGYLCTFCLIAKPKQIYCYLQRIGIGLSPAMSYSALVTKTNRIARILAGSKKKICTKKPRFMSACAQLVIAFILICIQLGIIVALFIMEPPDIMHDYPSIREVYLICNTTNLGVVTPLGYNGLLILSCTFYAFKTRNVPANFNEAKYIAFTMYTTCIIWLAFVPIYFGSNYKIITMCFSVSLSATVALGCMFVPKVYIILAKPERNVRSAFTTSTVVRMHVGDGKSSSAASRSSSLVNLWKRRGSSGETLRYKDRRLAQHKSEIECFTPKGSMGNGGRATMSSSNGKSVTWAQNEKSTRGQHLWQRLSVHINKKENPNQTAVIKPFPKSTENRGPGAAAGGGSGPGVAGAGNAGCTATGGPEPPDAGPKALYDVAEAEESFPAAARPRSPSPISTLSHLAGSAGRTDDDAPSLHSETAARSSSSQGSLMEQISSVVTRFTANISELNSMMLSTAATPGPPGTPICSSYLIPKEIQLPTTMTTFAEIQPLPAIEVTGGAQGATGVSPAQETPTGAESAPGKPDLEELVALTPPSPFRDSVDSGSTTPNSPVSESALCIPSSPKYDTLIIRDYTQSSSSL
In words: MGluR5 receptor binding test ([3H]-M-MPEP displacement, rat cerebro-cortical membrane preparation). The settings on record: rat mGluR5, [3H]-M-MPEP 2 nM; read-out: mGlu5 Ki. How it is done:
Rat cerebro-cortical membrane preparation was used to determine the binding characteristics of reference compounds and novel compounds to the rat mGluR5. The A18 cell line expressing hmGluR5a (purchased from Euroscreen) was used to determine binding characteristics of the chemical compounds to the human mGluR5a receptor. [3H]-M-MPEP (2 nM) was used as radioligand. The nonspecific binding was determined in the presence of 10 μM M-MPEP.

Regarding `O=S(=O)(c1cc(F)cc(F)c1)c1cnc2c(F)cccc2c1-c1cccc(F)c1` [Compound 51], the Ki was more than 500 nM at rat mGluR1 and less than 200 nM on rat mGluR5.

With `COc1ccc(-c2c(S(=O)(=O)c3ccc(F)cc3)cnc3c(F)cccc23)cc1` [Compound 52], the Ki on rat mGluR1 is more than 500 nM; at rat mGluR5, less than 200 nM.

On to `COc1ccc(S(=O)(=O)c2cnc3c(F)cccc3c2-c2cccc(Cl)c2)cc1` [Compound 53, 4-(3-chloro-phenyl)-8-fluoro-3-(4-methoxy-benzenesulfonyl)-quinoline], for which the Ki on rat mGluR1 was more than 500 nM; on rat mGluR5 it was less than 200 nM.

Regarding `COc1ccc(S(=O)(=O)c2cnc3c(F)cccc3c2-c2ccc(Cl)cc2)cc1` [Compound 54], the inhibitory constant (Ki) on rat mGluR1 and on rat mGluR5 was less than 200 nM throughout.

In the case of `COc1ccc(S(=O)(=O)c2cnc3c(F)cccc3c2-c2cccc(F)c2)cc1` [Compound 55], the Ki on rat mGluR1 is more than 500 nM; at rat mGluR5 it was less than 200 nM.

`COc1ccc(-c2c(S(=O)(=O)c3ccc(OC)cc3)cnc3c(F)cccc23)cc1` [Compound 56]: the Ki at rat mGluR1 was more than 500 nM; on rat mGluR5 it was less than 200 nM.

On to `COc1ccc(S(=O)(=O)c2cnc3c(F)cccc3c2-c2cccc(OC)c2)cc1` [Compound 57], for which the inhibition constant (Ki) at rat mGluR1 was more than 500 nM; at rat mGluR5, less than 200 nM.

Take `O=S(=O)(c1cccc(F)c1)c1cnc2c(F)cccc2c1-c1cccc(Cl)c1` [Compound 58]: the values for the inhibitory constant (Ki) at rat mGluR1 and at rat mGluR5 were 200 to 500 nM and less than 200 nM, respectively.

Regarding `O=S(=O)(c1cccc(F)c1)c1cnc2c(F)cccc2c1-c1ccc(Cl)cc1` [Compound 59], the inhibitory constant (Ki) at rat mGluR1 was 200 to 500 nM; on rat mGluR5, less than 200 nM.

As to `O=S(=O)(c1cccc(F)c1)c1cnc2c(F)cccc2c1-c1cccc(F)c1` [Compound 60], the Ki was 200 to 500 nM on rat mGluR1 and less than 200 nM at rat mGluR5.

`COc1ccc(-c2c(S(=O)(=O)c3cccc(F)c3)cnc3c(F)cccc23)cc1` [Compound 61]: the figures for the inhibitory constant (Ki) at rat mGluR1 and on rat mGluR5 were more than 500 nM and less than 200 nM, respectively.

Turning to `COc1cccc(-c2c(S(=O)(=O)c3cccc(F)c3)cnc3c(F)cccc23)c1` [Compound 62], the inhibition constant Ki is more than 500 nM on rat mGluR1 and less than 200 nM on rat mGluR5.

Regarding `O=S(=O)(c1cccc(F)c1)c1cnc2c(F)cccc2c1-c1ccc(F)cc1` [Compound 63], the inhibitory constant (Ki) was 200 to 500 nM on rat mGluR1 and less than 200 nM at rat mGluR5.

As for `O=S(=O)(c1cc(F)cc(F)c1)c1cnc2ccc(F)cc2c1-c1cccc(Cl)c1` [Compound 64], the Ki on rat mGluR1 and on rat mGluR5 was more than 500 nM each time.

Regarding `O=S(=O)(c1cc(F)cc(F)c1)c1cnc2ccc(F)cc2c1-c1cccc(F)c1` [Compound 65], the Ki at rat mGluR1 and on rat mGluR5 was 200 to 500 nM throughout.

Consider `O=S(=O)(c1cc(F)cc(F)c1)c1cnc2ccc(F)cc2c1-c1ccc(F)cc1` [Compound 66], for which the inhibition constant Ki at rat mGluR1 is more than 500 nM; at rat mGluR5, 200 to 500 nM.

For the compound `N#Cc1cccc(S(=O)(=O)c2cnc3ccc(F)cc3c2-c2cccc(F)c2)c1` [Compound 67], the figures for the Ki at rat mGluR1 and on rat mGluR5 were 200 to 500 nM and less than 200 nM, respectively.

Regarding `COc1cccc(-c2c(S(=O)(=O)c3cccc(C#N)c3)cnc3ccc(F)cc23)c1` [Compound 68, 3-(3-cyano-benzenesulfonyl)-6-fluoro-4-(3-methoxy-phenyl)-quinoline], the Ki at rat mGluR1 was more than 500 nM; at rat mGluR5, less than 200 nM.

As for `N#Cc1cccc(S(=O)(=O)c2cnc3ccc(F)cc3c2-c2ccc(F)cc2)c1` [Compound 69], the Ki was 200 to 500 nM at rat mGluR1 and less than 200 nM at rat mGluR5.

On to `COc1ccc(S(=O)(=O)c2cnc3ccc(F)cc3c2-c2cccc(Cl)c2)cc1OC` [Compound 70], for which the Ki at rat mGluR1 and at rat mGluR5 was more than 500 nM each time.

For `COc1ccc(-c2c(S(=O)(=O)c3ccc(OC)c(OC)c3)cnc3ccc(F)cc23)cc1` [Compound 71], the Ki on rat mGluR1 and at rat mGluR5 was more than 500 nM each time.

Take `COc1cccc(S(=O)(=O)c2cnc3ccc(F)cc3c2-c2cccc(Cl)c2)c1` [Compound 72]: the values for the Ki on rat mGluR1 and on rat mGluR5 were more than 500 nM and less than 200 nM, respectively.

In the case of `COc1cccc(S(=O)(=O)c2cnc3ccc(F)cc3c2-c2ccc(F)cc2)c1` [Compound 73], the values for the inhibition constant (Ki) at rat mGluR1 and at rat mGluR5 were more than 500 nM and less than 200 nM, respectively.

For `COc1ccc(-c2c(S(=O)(=O)c3ccc(OC)c(Cl)c3)cnc3ccc(F)cc23)cc1` [Compound 74], the results for the Ki on rat mGluR1 and on rat mGluR5 were more than 500 nM and less than 200 nM, respectively.

As to `COc1cccc(-c2c(S(=O)(=O)c3ccc(OC)c(Cl)c3)cnc3ccc(F)cc23)c1` [Compound 75], the values for the inhibition constant Ki on rat mGluR1 and at rat mGluR5 were more than 500 nM and less than 200 nM, respectively.

On to `O=S(=O)(c1ccc(F)cc1)c1cnc2cc(F)ccc2c1-c1ccc(Cl)cc1` [Compound 76], for which the inhibition constant Ki at rat mGluR1 was more than 500 nM; at rat mGluR5, less than 200 nM.

With `COc1ccc(-c2c(S(=O)(=O)c3ccc(C)c(C)c3)cnc3cc(F)ccc23)cc1` [Compound 77], the figures for the inhibitory constant (Ki) at rat mGluR1 and at rat mGluR5 were more than 500 nM and less than 200 nM, respectively.

Take `COc1ccc(S(=O)(=O)c2cnc3ccc(F)cc3c2-c2ccc(Cl)cc2)cc1Cl` [Compound 78]: the results for the Ki at rat mGluR1 and on rat mGluR5 were more than 500 nM and less than 200 nM, respectively.

As to `COc1ccc(S(=O)(=O)c2cnc3ccc(F)cc3c2-c2cccc(F)c2)cc1Cl` [Compound 79], the Ki was more than 500 nM at rat mGluR1 and less than 200 nM at rat mGluR5.

On to `O=S(=O)(c1cc(Cl)cc(Cl)c1)c1cnc2cc(F)ccc2c1-c1cccc(F)c1` [Compound 80], for which the Ki was 200 to 500 nM at rat mGluR1 and less than 200 nM on rat mGluR5.

`COc1ccc(-c2c(S(=O)(=O)c3cc(Cl)cc(Cl)c3)cnc3cc(F)ccc23)cc1` [Compound 81]: the Ki on rat mGluR1 is more than 500 nM; at rat mGluR5 it was less than 200 nM.

Take `COc1cccc(-c2c(S(=O)(=O)c3cc(Cl)cc(Cl)c3)cnc3cc(F)ccc23)c1` [Compound 82]: the Ki was more than 500 nM at rat mGluR1 and less than 200 nM on rat mGluR5.

Take `Cc1ccc(S(=O)(=O)c2cnc3cc(F)ccc3c2-c2cccc(Cl)c2)cc1F` [Compound 84]: the figures for the inhibitory constant (Ki) on rat mGluR1 and on rat mGluR5 were more than 500 nM and less than 200 nM, respectively.

Consider `Cc1ccc(S(=O)(=O)c2cnc3cc(F)ccc3c2-c2cccc(F)c2)cc1F` [Compound 85], for which the Ki at rat mGluR1 is more than 500 nM; on rat mGluR5 it was less than 200 nM.

`Cc1ccc(S(=O)(=O)c2cnc3cc(F)ccc3c2-c2ccc(F)cc2)cc1F` [Compound 86]: the Ki was more than 500 nM at rat mGluR1 and less than 200 nM on rat mGluR5.

On to `O=S(=O)(c1cc(F)cc(F)c1)c1cnc2cc(F)ccc2c1-c1cccc(Cl)c1` [Compound 87], for which the values for the Ki on rat mGluR1 and on rat mGluR5 were more than 500 nM and 200 to 500 nM, respectively.

For the compound `O=S(=O)(c1cc(F)cc(F)c1)c1cnc2cc(F)ccc2c1-c1cccc(F)c1` [Compound 88], the inhibition constant Ki at rat mGluR1 was 200 to 500 nM; at rat mGluR5 it was less than 200 nM.

For the compound `COc1ccc(-c2c(S(=O)(=O)c3cc(F)cc(F)c3)cnc3cc(F)ccc23)cc1` [Compound 89], the Ki on rat mGluR1 is more than 500 nM; at rat mGluR5, less than 200 nM.

For the compound `COc1cccc(-c2c(S(=O)(=O)c3cc(F)cc(F)c3)cnc3cc(F)ccc23)c1` [Compound 90], the Ki on rat mGluR1 was more than 500 nM; on rat mGluR5, less than 200 nM.

In the case of `N#Cc1cccc(S(=O)(=O)c2cnc3cc(F)ccc3c2-c2cccc(Cl)c2)c1` [Compound 91], the Ki at rat mGluR1 and at rat mGluR5 was less than 200 nM in each case.

In the case of `COc1ccc(-c2c(S(=O)(=O)c3cccc(C#N)c3)cnc3cc(F)ccc23)cc1` [Compound 92], the figures for the Ki at rat mGluR1 and on rat mGluR5 were 200 to 500 nM and less than 200 nM, respectively.

As for `COc1cccc(-c2c(S(=O)(=O)c3cccc(C#N)c3)cnc3cc(F)ccc23)c1` [Compound 93], the Ki at rat mGluR1 was more than 500 nM; on rat mGluR5, less than 200 nM.

Regarding `Cc1ccc(S(=O)(=O)c2cnc3cc(F)ccc3c2-c2cccc(F)c2)cc1Cl` [Compound 94], the Ki at rat mGluR1 was more than 500 nM; at rat mGluR5, less than 200 nM.

Turning to `COc1cccc(S(=O)(=O)c2cnc3cc(F)ccc3c2-c2cccc(F)c2)c1` [Compound 95], the Ki was more than 500 nM at rat mGluR1 and 200 to 500 nM at rat mGluR5.

Consider `COc1cccc(-c2c(S(=O)(=O)c3ccc(OC)c(Cl)c3)cnc3cc(F)ccc23)c1` [Compound 96], for which the results for the inhibitory constant (Ki) on rat mGluR1 and on rat mGluR5 were more than 500 nM and 200 to 500 nM, respectively.

Take `O=S(=O)(c1ccc(F)c(F)c1)c1cnc2cc(F)ccc2c1-c1cccc(Cl)c1` [Compound 97]: the Ki at rat mGluR1 and at rat mGluR5 was 200 to 500 nM throughout.

Consider `O=S(=O)(c1ccc(F)c(F)c1)c1cnc2cc(F)ccc2c1-c1cccc(F)c1` [Compound 98], for which the Ki is 200 to 500 nM at rat mGluR1 and less than 200 nM at rat mGluR5.

Take `COc1ccc(-c2c(S(=O)(=O)c3ccc(F)c(F)c3)cnc3cc(F)ccc23)cc1` [Compound 99]: the Ki at rat mGluR1 is more than 500 nM; at rat mGluR5, less than 200 nM.

For `COc1cccc(-c2c(S(=O)(=O)c3ccc(F)c(F)c3)cnc3cc(F)ccc23)c1` [Compound 100], the inhibitory constant (Ki) at rat mGluR1 is more than 500 nM; on rat mGluR5, less than 200 nM.

Regarding `O=S(=O)(c1ccc(F)c(F)c1)c1cnc2cc(F)ccc2c1-c1ccc(F)cc1` [Compound 101, 3-(3,4-difluoro-benzenesulfonyl)-7-fluoro-4-(4-fluoro-phenyl)-quinoline], the Ki on rat mGluR1 is 200 to 500 nM; on rat mGluR5 it was less than 200 nM.

As for `O=S(=O)(c1ccc(F)c(Cl)c1)c1cnc2cc(F)ccc2c1-c1ccc(Cl)cc1` [Compound 102], the values for the Ki at rat mGluR1 and on rat mGluR5 were 200 to 500 nM and less than 200 nM, respectively.
